Source: patent US12514887B2, “Oncolytic tumor viruses and methods of use” (priority 2014, dated 2026)

How the values were obtained:
mTOR = target: T1, mTOR (Homo sapiens, UniProt P42345+P62942); assay: p70 S6K phosphorylation immunoblot; format: cell-based; settings: targeting concentrations
T1 construct: endogenous in cells

[1] = test system: HS578T subcutaneous xenografts; assay: HS578T subcutaneous xenografts, AdSyn-CO335 study; settings: 28 days, 8 mg/kg rapamycin alone, no virus infection
Method: Oncolytic activity of AdSyn-CO335 was tested in vitro and in vivo. HS578T cells were infected with a serial dilution of AdSyn-CO335. At 24, 48, 72 and 96 hours after infection, fresh rapamycin or AP21967 was added to 50 nM. The metabolic activity was quantified by WST-1 assay, and was normalized to uninfected cells with a matching drug treatment. […] To evaluate AdSyn-CO335 in vivo, HS578T subcutaneous xenografts were established in mice. […]
Two perpendicular tumor diameters (l and w) were measured weekly to follow tumor progression. Tumor volumes were calculated by use of the modified ellipsoid formula where vol=½ (l*w^2) (Euhus et al., J Surg Oncol 31(4):229-2341986; Tomayko et al., Cancer Chemother Pharmacol 24(3):148-154, 1989).
On days 0, 3, and 6, mice were injected intratumorally with 2×10^8 PFU of adenovirus diluted in 50 μl PBS. […] Body weight was monitored for toxicity, and tumor sizes were measured while blinded to treatment groups. […]

CO[C@H]1[C@@H](O)[C@H](C)C[C@H](C)/C=C/C=C/C=C(\C)[C@@H](c2c[nH]c3c(C)cccc23)C[C@@H]2CC[C@@H](C)[C@@](O)(O2)C(=O)C(=O)N2CCCC[C@H]2C(=O)O[C@H]([C@H](C)C[C@@H]2CC[C@@H](O)[C@H](OC)C2)C[C@H](O)[C@H](C)/C=C(\C)[C@H]1O [AP21967]
phosphorylation of p70 S6K (mTOR inhibition) (mTOR): does not inhibit mTOR at targeting concentrations

CO[C@H]1C[C@@H]2CC[C@@H](C)[C@@](O)(O2)C(=O)C(=O)N2CCCC[C@H]2C(=O)O[C@H]([C@H](C)C[C@@H]2CC[C@@H](O)[C@H](OC)C2)CC(=O)[C@H](C)/C=C(\C)[C@@H](O)[C@@H](OC)C(=O)[C@H](C)C[C@H](C)/C=C/C=C/C=C/1C [rapamycin, Rapamycin]
mean tumor volume [1]: 229±49 mm^3
